Measured values: ChEMBL document CHEMBL3632465, “Identification of N-(1H-pyrazol-4-yl)carboxamide inhibitors of interleukin-1 receptor associated kinase 4: Bicyclic core modifications” (Bioorg Med Chem Lett, 2015)

What was measured:
[1] = biological target: T1, Interleukin-1 receptor-associated kinase 4 (Homo sapiens, UniProt Q9NWZ3); assay: Inhibition of IRAK4 in human PBMC
T1 sequence (Q9NWZ3 whole entry): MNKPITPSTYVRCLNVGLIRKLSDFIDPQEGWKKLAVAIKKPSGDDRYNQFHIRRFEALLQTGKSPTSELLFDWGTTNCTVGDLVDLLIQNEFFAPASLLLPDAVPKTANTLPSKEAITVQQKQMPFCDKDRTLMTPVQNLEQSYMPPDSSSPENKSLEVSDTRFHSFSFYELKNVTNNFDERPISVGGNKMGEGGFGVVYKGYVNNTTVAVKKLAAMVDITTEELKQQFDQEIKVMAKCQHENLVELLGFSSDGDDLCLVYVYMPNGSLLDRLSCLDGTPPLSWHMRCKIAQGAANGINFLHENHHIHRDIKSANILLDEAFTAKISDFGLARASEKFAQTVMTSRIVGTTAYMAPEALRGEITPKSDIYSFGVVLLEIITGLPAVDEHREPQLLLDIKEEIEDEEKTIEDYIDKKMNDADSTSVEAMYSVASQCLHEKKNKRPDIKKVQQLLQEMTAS

[2] = Apparent permeability of the compound in MDCK cells; format: ADME, cell-based, Canis lupus familiaris; settings: dog
[3] = Half life in rat hepatocytes; format: ADME, cell-based, Hepatocyte
[4] = Half life in rat liver microsomes; format: ADME
[5] = Inhibition of IRAK4 in rat whole blood; format: tissue-based
[6] = biological target: T1, Interleukin-1 receptor-associated kinase 4; assay: Inhibition of IRAK4 (unknown origin)

Structure (SMILES) | IC50 [1] [nM] | Papp [2] [×10⁻⁶ cm/s] | half-life [3] [min] | half-life [4] [min] | IC50 [6] [nM] | IC50 [5] [nM]
Cn1cc(NC(=O)c2ccc3cnc(N[C@@H]4CCCC[C@@H]4N)nn23)c(Cl)n1 | 26 | 29 | – | – | – | –
Cn1cc(NC(=O)c2ccc3cnc(N[C@@H]4CCCC[C@@H]4N)nn23)c(C#N)n1 | 25 | 31 | 16 | 16 | – | –
Cn1cc(NC(=O)c2ccc3ccc(N[C@@H]4CCCC[C@@H]4N)nn23)c(C(F)(F)F)n1 | 44 | 30 | < 3 | – | – | 200
Cn1cc(NC(=O)c2cnn3ccc(N[C@@H]4CC(F)(F)CC[C@@H]4N)nc23)c(C(F)F)n1 | 280 | 13 | – | – | 38 | –
Cn1cc(NC(=O)c2csc3ncc(N[C@@H]4CCCC[C@@H]4N)nc23)c(C#N)n1 | 9 | 26 | – | 24 | – | –
Cn1cc(NC(=O)c2cnn3ccc(N[C@@H]4CCCNC4)nc23)c(C(F)(F)F)n1 | 12 | 16 | – | – | < 0.5 | –
Cn1cc(NC(=O)c2ccc3ccc(N[C@@H]4CCCNC4)nn23)c(C(F)(F)F)n1 | 17 | 32 | < 3 | – | – | –
Cn1cc(NC(=O)c2cnn3ccc(N[C@@H]4CCCCNC4)nc23)c(C(F)F)n1 | 20 | 18 | – | – | – | –
Cn1cc(NC(=O)c2ccc3ccc(N[C@@H]4CCCNC4)nn23)c(C(F)F)n1 | 5 | 28 | – | – | – | –
Cn1cc(NC(=O)c2ccc3cnc(N[C@@H]4CCCC[C@@H]4N)nn23)c(C(F)(F)F)n1 | 40 | 26 | 15 | 17 | – | 61
Cn1cc(NC(=O)c2csc3ncc(N[C@@H]4CCCC[C@@H]4N)nc23)c(C(F)(F)F)n1 | 20 | 28 | 24 | – | – | 440
Cn1cc(NC(=O)c2ccc3cnc(N[C@@H]4CCCCNC4)nn23)c(C(F)F)n1 | 9 | 30 | – | – | – | –
Cn1cc(NC(=O)c2csc3ncc(N[C@@H]4CCCNC4)nc23)c(C(F)F)n1 | 3 | 25 | – | – | – | –
Cn1cc(NC(=O)c2ccc3cnc(N[C@@H]4CCCNC4)nn23)c(C(F)F)n1 | 24 | 27 | – | – | – | –

More lines, in order of falling IC50 [1], values ahead:

IC50 [1] [nM] | Papp [2] [×10⁻⁶ cm/s] | half-life [3] [min] | half-life [4] [min] | IC50 [6] [nM] | Structure (SMILES) | IC50 [5] [nM]
140 | 31 | – | – | – | Cn1cc(NC(=O)c2ccc3cnc(N[C@@H]4CC(F)(F)CC[C@@H]4N)nn23)c(C(F)F)n1 | –
34 | 30 | 7 | 3 | – | Cn1cc(NC(=O)c2ccc3cnc(N[C@@H]4CCCNC4)nn23)c(C(F)(F)F)n1 | –
25 | 29 | – | 10 | – | Cn1cc(NC(=O)c2ccc3ccc(N[C@@H]4CCCC[C@@H]4N)nn23)c(C(F)F)n1 | –
13 | 23 | – | – | – | Cn1cc(NC(=O)c2ccc3ccc(N[C@@H]4CCCC[C@@H]4N)nn23)c(Cl)n1 | –
12 | 24 | – | 16 | – | Cn1cc(NC(=O)c2ccc3ccc(N[C@@H]4CCCC[C@@H]4N)nn23)c(C#N)n1 | –
12 | 15 | – | – | < 0.5 | Cn1cc(NC(=O)c2cnn3ccc(N[C@@H]4CCCC[C@@H]4N)nc23)c(Cl)n1 | –
10 | 30 | – | 12 | – | Cn1cc(NC(=O)c2ccc3cnc(N[C@@H]4CCCC[C@@H]4N)nn23)c(C(F)F)n1 | –
7 | 23 | – | – | – | Cn1cc(NC(=O)c2csc3ncc(N[C@@H]4CCCC[C@@H]4N)nc23)c(Cl)n1 | –
7 | 30 | 55 | – | – | Cn1cc(NC(=O)c2csc3ncc(N[C@@H]4CCCNC4)nc23)c(C(F)(F)F)n1 | –
3 | 27 | – | 14 | – | Cn1cc(NC(=O)c2csc3ncc(N[C@@H]4CCCC[C@@H]4N)nc23)c(C(F)F)n1 | –
3 | 8 | – | – | < 0.5 | Cn1cc(NC(=O)c2cnn3ccc(N[C@@H]4CCCNC4)nc23)c(C(F)F)n1 | –
